Reference: the kinase profiling compilation of Christmann-Franck et al. (2016)

How the values were obtained:
Test in all cases: KINOMEscan competition binding
Conditions in all cases: compound 10.0 µM
ACVRL1 (human) = ACVRL1 (human) (UniProt P37023)
ADCK4 (human) = ADCK4 (human) (UniProt Q96D53)
CAMK2B (human) = CAMK2B (human) (UniProt Q13554)
CDK9 (human) = CDK9 (human) (UniProt P50750)
CHEK1 (human) = CHEK1 (human) (UniProt O14757)
CHUK (human) = CHUK (human) (UniProt O15111)
CPK1 (P.falciparum) = tested on: CPK1 (P.falciparum)
CSNK1G2 (human) = CSNK1G2 (human) (UniProt P78368)
CSNK1G3 (human) = CSNK1G3 (human) (UniProt Q9Y6M4)
DCLK1 (human) = DCLK1 (human) (UniProt O15075)
DYRK1A (human) = DYRK1A (human) (UniProt Q13627)
[1] = tested on: EGFR (human), P00533 [752-759 del]
EPHA6 (human) = EPHA6 (human) (UniProt Q9UF33)
HIPK2 (human) = HIPK2 (human) (UniProt Q9H2X6)
IRAK3 (human) = IRAK3 (human) (UniProt Q9Y616)
IRAK4 (human) = IRAK4 (human) (UniProt Q9NWZ3)
[2] = tested on: KIT (human), P10721 [L576P]
MAP2K4 (human) = MAP2K4 (human) (UniProt P45985)
MAP3K2 (human) = MAP3K2 (human) (UniProt Q9Y2U5)
MAP3K5 (human) = MAP3K5 (human) (UniProt Q99683)
MAPK15 (human) = MAPK15 (human) (UniProt Q8TD08)
MAPK9 (human) = MAPK9 (human) (UniProt P45984)
NEK5 (human) = NEK5 (human) (UniProt Q6P3R8)
NEK6 (human) = NEK6 (human) (UniProt Q9HC98)
NEK7 (human) = NEK7 (human) (UniProt Q8TDX7)
OXSR1 (human) = OXSR1 (human) (UniProt O95747)
PKN1 (human) = PKN1 (human) (UniProt Q16512)
PLK1 (human) = PLK1 (human) (UniProt P53350)
PRKAA2 (human) = PRKAA2 (human) (UniProt P54646)
PRKACB (human) = PRKACB (human) (UniProt P22694)
PRKCH (human) = PRKCH (human) (UniProt P24723)
PRKD3 (human) = PRKD3 (human) (UniProt O94806)
[3] = tested on: RET (human), P07949 [V804M]
SBK1 (human) = SBK1 (human) (UniProt Q52WX2)
STK32C (human) = STK32C (human) (UniProt Q86UX6)
STK33 (human) = STK33 (human) (UniProt Q9BYT3)
TEC (human) = TEC (human) (UniProt P42680)
TGFBR2 (human) = TGFBR2 (human) (UniProt P37173)
TYRO3 (human) = TYRO3 (human) (UniProt Q06418)
Sequence of TYRO3 (human) (Q06418 whole entry, looked up): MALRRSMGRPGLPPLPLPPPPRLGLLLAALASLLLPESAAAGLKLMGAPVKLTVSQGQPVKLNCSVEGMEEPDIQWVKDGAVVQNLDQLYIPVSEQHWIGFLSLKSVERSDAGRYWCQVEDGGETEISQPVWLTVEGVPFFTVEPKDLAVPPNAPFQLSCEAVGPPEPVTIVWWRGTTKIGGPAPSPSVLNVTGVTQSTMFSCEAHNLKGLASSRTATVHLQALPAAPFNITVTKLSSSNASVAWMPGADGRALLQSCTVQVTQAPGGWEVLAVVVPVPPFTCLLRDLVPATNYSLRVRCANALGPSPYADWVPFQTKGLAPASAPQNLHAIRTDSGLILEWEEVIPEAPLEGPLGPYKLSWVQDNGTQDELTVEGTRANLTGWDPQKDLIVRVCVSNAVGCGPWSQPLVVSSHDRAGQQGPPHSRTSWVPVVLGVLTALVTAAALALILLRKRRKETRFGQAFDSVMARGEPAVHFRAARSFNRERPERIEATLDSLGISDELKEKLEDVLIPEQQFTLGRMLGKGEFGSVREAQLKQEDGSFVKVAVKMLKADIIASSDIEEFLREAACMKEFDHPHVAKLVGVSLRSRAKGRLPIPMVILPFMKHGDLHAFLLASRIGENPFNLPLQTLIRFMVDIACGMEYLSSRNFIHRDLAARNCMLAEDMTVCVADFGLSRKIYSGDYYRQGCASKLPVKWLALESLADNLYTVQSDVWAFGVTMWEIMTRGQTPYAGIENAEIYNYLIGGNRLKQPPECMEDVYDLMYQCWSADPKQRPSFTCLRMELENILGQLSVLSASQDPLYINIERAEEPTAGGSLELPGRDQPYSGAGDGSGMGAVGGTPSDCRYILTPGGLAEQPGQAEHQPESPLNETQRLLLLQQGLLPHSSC

Sequence of CHEK1 (human) (O14757 whole entry, looked up): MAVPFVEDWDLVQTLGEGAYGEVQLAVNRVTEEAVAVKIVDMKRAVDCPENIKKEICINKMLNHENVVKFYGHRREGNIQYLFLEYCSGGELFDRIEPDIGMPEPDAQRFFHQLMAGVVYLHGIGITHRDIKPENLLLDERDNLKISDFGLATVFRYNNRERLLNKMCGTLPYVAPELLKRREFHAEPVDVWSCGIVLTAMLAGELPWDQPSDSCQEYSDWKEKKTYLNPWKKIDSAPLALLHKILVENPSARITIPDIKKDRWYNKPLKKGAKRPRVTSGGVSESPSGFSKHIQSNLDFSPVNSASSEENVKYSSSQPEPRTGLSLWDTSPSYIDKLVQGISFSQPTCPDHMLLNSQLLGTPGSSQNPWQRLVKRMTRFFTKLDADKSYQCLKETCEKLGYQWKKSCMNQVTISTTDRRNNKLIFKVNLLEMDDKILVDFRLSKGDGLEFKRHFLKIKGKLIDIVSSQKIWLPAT
Sequence of RET (human), P07949 [V804M] (P07949 whole entry V804M, looked up): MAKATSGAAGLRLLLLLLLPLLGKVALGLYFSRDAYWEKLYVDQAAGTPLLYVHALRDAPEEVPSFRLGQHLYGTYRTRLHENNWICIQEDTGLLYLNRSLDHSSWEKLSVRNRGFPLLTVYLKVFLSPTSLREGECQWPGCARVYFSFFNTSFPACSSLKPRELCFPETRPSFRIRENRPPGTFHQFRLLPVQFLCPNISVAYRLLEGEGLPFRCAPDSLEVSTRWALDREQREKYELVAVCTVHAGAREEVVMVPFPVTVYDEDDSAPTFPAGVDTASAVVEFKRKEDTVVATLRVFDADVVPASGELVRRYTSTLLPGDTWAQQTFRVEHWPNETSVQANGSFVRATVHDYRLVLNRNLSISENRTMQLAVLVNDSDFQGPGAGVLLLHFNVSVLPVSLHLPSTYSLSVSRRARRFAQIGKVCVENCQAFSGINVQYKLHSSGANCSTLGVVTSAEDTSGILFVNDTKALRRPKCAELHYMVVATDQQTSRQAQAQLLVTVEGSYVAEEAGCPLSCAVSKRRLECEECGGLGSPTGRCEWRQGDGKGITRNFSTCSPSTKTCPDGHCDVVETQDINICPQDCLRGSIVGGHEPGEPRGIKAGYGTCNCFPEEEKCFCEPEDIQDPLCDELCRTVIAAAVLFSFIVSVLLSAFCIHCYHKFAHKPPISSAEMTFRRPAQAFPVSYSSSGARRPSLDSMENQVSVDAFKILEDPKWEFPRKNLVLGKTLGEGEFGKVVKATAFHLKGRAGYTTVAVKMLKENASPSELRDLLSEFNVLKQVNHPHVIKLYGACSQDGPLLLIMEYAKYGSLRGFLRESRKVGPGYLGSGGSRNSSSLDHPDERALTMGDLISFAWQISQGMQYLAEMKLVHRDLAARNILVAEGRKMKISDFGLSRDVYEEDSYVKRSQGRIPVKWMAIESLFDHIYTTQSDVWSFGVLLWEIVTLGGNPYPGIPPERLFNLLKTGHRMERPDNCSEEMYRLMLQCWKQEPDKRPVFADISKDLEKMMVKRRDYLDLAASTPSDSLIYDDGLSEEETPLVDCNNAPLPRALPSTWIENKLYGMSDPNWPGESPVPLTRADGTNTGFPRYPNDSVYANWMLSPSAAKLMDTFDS
Sequence of HIPK2 (human) (Q9H2X6 whole entry, looked up): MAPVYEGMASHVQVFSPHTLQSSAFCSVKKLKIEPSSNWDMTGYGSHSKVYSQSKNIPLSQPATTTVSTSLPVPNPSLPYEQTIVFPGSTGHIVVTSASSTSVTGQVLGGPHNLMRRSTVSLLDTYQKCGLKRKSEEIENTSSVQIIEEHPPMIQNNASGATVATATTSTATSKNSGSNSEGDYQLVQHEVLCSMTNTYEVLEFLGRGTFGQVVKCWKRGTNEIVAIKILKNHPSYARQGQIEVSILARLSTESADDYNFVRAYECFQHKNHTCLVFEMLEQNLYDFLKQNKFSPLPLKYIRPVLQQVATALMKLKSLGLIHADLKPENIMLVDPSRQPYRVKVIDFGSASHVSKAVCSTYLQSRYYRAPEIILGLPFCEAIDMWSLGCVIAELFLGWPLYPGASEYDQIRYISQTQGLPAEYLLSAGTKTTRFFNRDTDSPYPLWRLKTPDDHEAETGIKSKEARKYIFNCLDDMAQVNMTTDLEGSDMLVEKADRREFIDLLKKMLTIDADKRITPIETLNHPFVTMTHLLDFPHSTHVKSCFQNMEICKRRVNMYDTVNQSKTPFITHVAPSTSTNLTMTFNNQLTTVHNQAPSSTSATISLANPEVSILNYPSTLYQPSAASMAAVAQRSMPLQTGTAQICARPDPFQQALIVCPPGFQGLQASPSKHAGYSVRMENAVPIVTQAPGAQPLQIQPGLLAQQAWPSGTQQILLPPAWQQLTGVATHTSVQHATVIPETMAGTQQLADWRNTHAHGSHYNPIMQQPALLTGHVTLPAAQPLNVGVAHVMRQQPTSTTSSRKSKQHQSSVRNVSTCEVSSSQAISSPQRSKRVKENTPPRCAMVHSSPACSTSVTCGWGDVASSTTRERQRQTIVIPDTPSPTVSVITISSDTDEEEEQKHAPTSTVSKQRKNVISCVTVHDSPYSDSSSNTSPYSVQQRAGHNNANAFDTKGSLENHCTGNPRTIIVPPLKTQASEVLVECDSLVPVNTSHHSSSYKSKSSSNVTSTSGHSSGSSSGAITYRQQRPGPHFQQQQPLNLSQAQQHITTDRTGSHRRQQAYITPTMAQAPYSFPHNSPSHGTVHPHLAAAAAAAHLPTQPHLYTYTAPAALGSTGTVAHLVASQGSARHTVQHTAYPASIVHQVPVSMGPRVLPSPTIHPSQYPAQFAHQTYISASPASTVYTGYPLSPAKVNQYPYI
Sequence of CDK9 (human) (P50750 whole entry, looked up): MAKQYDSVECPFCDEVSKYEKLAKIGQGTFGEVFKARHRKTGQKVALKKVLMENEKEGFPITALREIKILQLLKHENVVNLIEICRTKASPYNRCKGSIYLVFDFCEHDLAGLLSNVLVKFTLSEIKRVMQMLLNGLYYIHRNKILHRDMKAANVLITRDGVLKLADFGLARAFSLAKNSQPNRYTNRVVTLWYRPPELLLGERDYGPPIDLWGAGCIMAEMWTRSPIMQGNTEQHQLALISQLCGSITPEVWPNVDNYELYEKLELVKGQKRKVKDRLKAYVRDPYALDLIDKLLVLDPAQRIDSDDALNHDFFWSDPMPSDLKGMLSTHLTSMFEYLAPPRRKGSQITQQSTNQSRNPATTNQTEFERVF
Sequence of NEK6 (human) (Q9HC98 whole entry, looked up): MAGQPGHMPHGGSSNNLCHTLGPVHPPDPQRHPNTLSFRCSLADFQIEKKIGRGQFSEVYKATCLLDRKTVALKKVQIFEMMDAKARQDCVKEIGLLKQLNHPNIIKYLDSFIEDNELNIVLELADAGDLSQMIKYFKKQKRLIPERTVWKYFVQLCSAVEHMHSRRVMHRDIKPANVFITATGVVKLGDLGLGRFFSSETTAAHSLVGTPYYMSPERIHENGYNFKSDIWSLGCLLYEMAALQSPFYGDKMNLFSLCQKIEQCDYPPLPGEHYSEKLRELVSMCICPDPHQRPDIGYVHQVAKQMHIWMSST
Sequence of MAP2K4 (human) (P45985 whole entry, looked up): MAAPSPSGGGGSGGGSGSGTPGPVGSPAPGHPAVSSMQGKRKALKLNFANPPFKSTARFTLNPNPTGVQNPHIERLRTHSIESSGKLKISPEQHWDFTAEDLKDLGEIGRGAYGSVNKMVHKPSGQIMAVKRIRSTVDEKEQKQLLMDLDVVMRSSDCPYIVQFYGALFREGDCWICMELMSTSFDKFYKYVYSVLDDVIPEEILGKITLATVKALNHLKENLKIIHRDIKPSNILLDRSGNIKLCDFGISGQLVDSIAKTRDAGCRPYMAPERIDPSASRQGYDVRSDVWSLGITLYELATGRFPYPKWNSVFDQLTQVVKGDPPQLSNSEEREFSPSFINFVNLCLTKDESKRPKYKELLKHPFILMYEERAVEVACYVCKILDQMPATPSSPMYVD

Structure (SMILES)	kinase still bound, per cent of control (ACVRL1 (human)) [%]	kinase still bound, per cent of control (ADCK4 (human)) [%]	kinase still bound, per cent of control (CAMK2B (human)) [%]	kinase still bound, per cent of control (CDK9 (human)) [%]	kinase still bound, per cent of control (CHEK1 (human)) [%]	kinase still bound, per cent of control (CHUK (human)) [%]	kinase still bound, per cent of control (CPK1 (P.falciparum)) [%]	kinase still bound, per cent of control (CSNK1G2 (human)) [%]	kinase still bound, per cent of control (CSNK1G3 (human)) [%]	kinase still bound, per cent of control (DCLK1 (human)) [%]	kinase still bound, per cent of control (DYRK1A (human)) [%]	kinase still bound, per cent of control [1] [%]	kinase still bound, per cent of control (EPHA6 (human)) [%]	kinase still bound, per cent of control (HIPK2 (human)) [%]	kinase still bound, per cent of control (IRAK3 (human)) [%]	kinase still bound, per cent of control (IRAK4 (human)) [%]	kinase still bound, per cent of control [2] [%]	kinase still bound, per cent of control (MAP2K4 (human)) [%]	kinase still bound, per cent of control (MAP3K2 (human)) [%]	kinase still bound, per cent of control (MAP3K5 (human)) [%]	further results
CN(C)C/C=C/C(=O)Nc1ccc(C(=O)Nc2cccc(Nc3nccc(-c4cccnc4)n3)c2)cc1	97	98	60	90	100	54	100	100	100	98	28	88	90	2.6	6.8	34	0.35	9.8	79	100	kinase still bound, per cent of control (MAPK15 (human)): 23%; kinase still bound, per cent of control (MAPK9 (human)): 2.5%; kinase still bound, per cent of control (NEK5 (human)): 2.2%; kinase still bound, per cent of control (NEK6 (human)): 2.8%; kinase still bound, per cent of control (NEK7 (human)): 9.8%; kinase still bound, per cent of control (OXSR1 (human)): 100%; kinase still bound, per cent of control (PKN1 (human)): 95%; kinase still bound, per cent of control (PLK1 (human)): 100%; kinase still bound, per cent of control (PRKAA2 (human)): 95%; kinase still bound, per cent of control (PRKACB (human)): 100%; kinase still bound, per cent of control (PRKCH (human)): 100%; kinase still bound, per cent of control (PRKD3 (human)): 94%; kinase still bound, per cent of control [3]: 74%; kinase still bound, per cent of control (SBK1 (human)): 100%; kinase still bound, per cent of control (STK32C (human)): 100%; kinase still bound, per cent of control (STK33 (human)): 100%; kinase still bound, per cent of control (TEC (human)): 100%; kinase still bound, per cent of control (TGFBR2 (human)): 50%; kinase still bound, per cent of control (TYRO3 (human)): 100%
COc1cc2ncnc(-n3nc(-c4ccccn4)nc3N)c2cc1OC	15	14	37	76	100	44	1.4	1.1	20	36	0.1	58	23	0.65	12	5.8	4.5	3.8	33	100	kinase still bound, per cent of control (MAPK15 (human)): 0.55%; kinase still bound, per cent of control (MAPK9 (human)): 1.5%; kinase still bound, per cent of control (NEK5 (human)): 26%; kinase still bound, per cent of control (NEK6 (human)): 0.15%; kinase still bound, per cent of control (NEK7 (human)): 1.4%; kinase still bound, per cent of control (OXSR1 (human)): 42%; kinase still bound, per cent of control (PKN1 (human)): 100%; kinase still bound, per cent of control (PLK1 (human)): 22%; kinase still bound, per cent of control (PRKAA2 (human)): 27%; kinase still bound, per cent of control (PRKACB (human)): 100%; kinase still bound, per cent of control (PRKCH (human)): 100%; kinase still bound, per cent of control (PRKD3 (human)): 42%; kinase still bound, per cent of control [3]: 66%; kinase still bound, per cent of control (SBK1 (human)): 100%; kinase still bound, per cent of control (STK32C (human)): 44%; kinase still bound, per cent of control (STK33 (human)): 6.4%; kinase still bound, per cent of control (TEC (human)): 100%; kinase still bound, per cent of control (TGFBR2 (human)): 9%; kinase still bound, per cent of control (TYRO3 (human)): 63%
O=C(Nc1cccc(Nc2ncc(Br)c(NCCc3cnc[nH]3)n2)c1)N1CCCC1	100	33	35	66	0.4	4.1	3.8	76	88	35	12	66	54	1.6	0.7	0	0	0.3	0.25	24	kinase still bound, per cent of control (MAPK15 (human)): 1.8%; kinase still bound, per cent of control (MAPK9 (human)): 0.3%; kinase still bound, per cent of control (NEK5 (human)): 0.5%; kinase still bound, per cent of control (NEK6 (human)): 0.5%; kinase still bound, per cent of control (NEK7 (human)): 0.5%; kinase still bound, per cent of control (OXSR1 (human)): 25%; kinase still bound, per cent of control (PKN1 (human)): 0.3%; kinase still bound, per cent of control (PLK1 (human)): 41%; kinase still bound, per cent of control (PRKAA2 (human)): 0.5%; kinase still bound, per cent of control (PRKACB (human)): 1%; kinase still bound, per cent of control (PRKCH (human)): 33%; kinase still bound, per cent of control (PRKD3 (human)): 0.5%; kinase still bound, per cent of control [3]: 0.05%; kinase still bound, per cent of control (SBK1 (human)): 3.6%; kinase still bound, per cent of control (STK32C (human)): 100%; kinase still bound, per cent of control (STK33 (human)): 0.8%; kinase still bound, per cent of control (TEC (human)): 47%; kinase still bound, per cent of control (TGFBR2 (human)): 100%; kinase still bound, per cent of control (TYRO3 (human)): 85%
